Data published in paper PMC3206815, “An Essential Farnesylated Kinesin in Trypanosoma brucei” (PLoS ONE, 2011).

Biological target: T1, Kinesin^CaaX (Trypanosoma brucei, UniProt Q388Z9)
T1 construct: gene Tb10.389.1270; truncated N-terminal 340-residue motor domain plus coil (full length 832 residues), N-terminal 6xHis, E. coli BL21 soluble lysate, about 44 kDa
T1 sequence (Q388Z9 1-340): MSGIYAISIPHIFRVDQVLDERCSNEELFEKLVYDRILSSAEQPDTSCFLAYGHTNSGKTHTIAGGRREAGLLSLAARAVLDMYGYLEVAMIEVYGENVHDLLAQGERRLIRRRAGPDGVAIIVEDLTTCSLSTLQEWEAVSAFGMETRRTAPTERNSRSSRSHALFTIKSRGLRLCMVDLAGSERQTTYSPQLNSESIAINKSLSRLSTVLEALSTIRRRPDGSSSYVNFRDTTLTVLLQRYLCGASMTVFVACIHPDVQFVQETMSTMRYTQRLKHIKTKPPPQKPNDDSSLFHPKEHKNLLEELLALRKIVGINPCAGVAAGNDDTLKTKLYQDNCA
Assay: microtubule gliding motility assay
Type: biochemical
Conditions: 1 mM MgATP, BRB80 pH 6.9, taxol-stabilised bovine microtubules; E. coli lysate with recombinant motor domain

Nc1ncnc2c1ncn2[C@@H]1O[C@H](COP(=O)(O)OP(=O)(O)OP(=O)(O)O)[C@@H](O)[C@H]1O [ATP]
microtubule gliding motility assay: both ATP and the Kinesin^CaaX motor domain were required to move microtubules
